Source: US20120016011A1, “RNA Interference Mediated Inhibition of Connective Tissue Growth Factor (CTGF) Gene Expression Using Short Interfering Nucleic Acid (siNA)” (Merck Sharp & Dohme Corp., priority 2009, published 2012)
[invAb] = inverted abasic unit; d = 2'-deoxy (DNA); m = 2'-O-methyl; r = 2'-OH (RNA); f = 2'-fluoro

How the values were obtained:
CTGF mRNA [1] = test: CTGF mRNA knockdown (Taqman RT-PCR) after siNA transfection of human NHLF cells; format: cell-based; settings: 10 nM siNA, 24 hrs, average of 3 experiments, vs non-targeting control
Description: NHLF (Normal human lung fibroblasts; Lonza cat# CC-2512): Cells were cultured at 37° C. in the presence of 5% CO2 and grown in Fibroblast Basal Medium (Lonza cat# CC-3132) supplemented with 2% FBS and growth factors (provided with the kit) and 100 μg/mL of streptomycin and 100 U/mL penicillin.
(§1) Cells were plated in all wells of a tissue-culture treated, 96-well plate at a final count of 5000 cells/well in […], of the appropriate culture media. The cells were cultured for 24 hours after plating at 37° C. in the presence of 5% CO2.
(§2) After 24 hours, complexes containing siNA and RNAiMax were created as follows: A solution of RNAiMax diluted 33-fold in OPTI-MEM was prepared. In parallel, solutions of the siNAs for testing were prepared to a final concentration of 120 nM in OPTI-MEM. After incubation of RNAiMax/OPTI-MEM solution at room temperature for 5 min, an equal volume of the siNA solution and the RNAiMax solution were added together for each of the siNAs.
(§3) This solution was incubated at room temperature for 20 minutes. After incubation, 20 uL of the solution was added to each of the relevant wells. The final concentration of siNA in each well was 10 nM and the final volume of RNAiMax in each well was 0.3 ul.
(§4) The time of incubation with the RNAiMax-siNA complexes was 24 hours and there was no change in media between transfection and harvesting, unless otherwise indicated.
(§5) RNA was extracted from a 96-well plate using the TaqMan® Gene Expression Cells-to-CT™ Kit (Cat# 4399002) with a modified protocol. Briefly, a 60 uL (1 plate) or 110 uL (2 plates) of the Lysis Solution with DNase I was dispensed into each well of the Lysis Buffer Plate (twin.tec full skirt plate). The lysis buffer and stop plates were stored at 4° C. until the cells were washed.
(§6) The plate was spun at 1100 rpm for 5 minutes. The culture medium was aspirated and discarded from the wells of the culture plate. The lysis was performed automatically using a BioMek FX instrument and method. After the Biomek method was completed, the lysis plate was incubated for 2 min. at room temperature. The lysis plate can be stored for 2 hours at 4° C., or at −20° C. or −80° C. for two months.
(§7) Each well of the reverse transcription plate required 10 uL of 2× reverse transcriptase Buffer, 1 uL of 20× reverse transcription enzyme and 2 uL of nuclease-free water. The reverse transcription master mix was prepared by mixing 2× reverse transcription buffer, 20× reverse transcription enzyme mix, and nuclease-free water. 13 uL of the reverse transcription master mix was dispensed into each well of the reverse transcription plate (semi-skirted). A separate reverse transcription plate was prepared for each cell plate. The plate was loaded onto a Biomek NX or Biomek FX Dual -96 and the Biomek method was run. The program is programmed to automatically added 7 uL of lysate from the cell lysis procedure described above into each well of the reverse transcription plate. The plate is sealed and spun on a centrifuge (1000 rpm for 30 seconds) to settle the contents to the bottom of the reverse transcription plate. The plate is placed in a thermocycler at 37° C. for 60 min, 95° C. for 5 min, and 4° C. until the plate is removed from the thermocycler. Upon removal, if not used immediately, the plate was frozen at −20° C.
(§8) A series of probes and primers were used to detect the various mRNA transcripts of the genes of β-Actin (human cell line only), and of CTGF and GAPDH in mouse and human cell lines. All Taqman probes and primers for the experiments here-in described were supplied as pre-validated sets by Applied Biosystems, Inc. (see Table 3).
The assays were performed on an ABI 7900 instrument, according to the manufacturer's instructions. A TaqMan Gene Expression Master Mix (provided in the Cells-to-CT™, Applied Biosystems, Cat # 4399002) was used. The PCR reactions were carried out at 50° C. for 2 min, 95° C. for 20 min followed by 40 cycles at 95° C. for 15 secs and 60° C. for 1 min. […]

CTGF mRNA [2] = test: CTGF mRNA knockdown (Taqman RT-PCR) after siNA transfection of mouse NIH 3T3 cells; format: cell-based; settings: mouse NIH3T3 cells, 10 nM siNA, 24 hrs, average of 3 experiments, vs non-targeting control
Description: NIH 3T3 (mouse; ATCC cat# CRL-1658): Cells were cultured at 37° C. in the presence of 5% CO2 and grown in Dulbecco's modified Eagle's medium (DMEM) with 4 mM L-glutamine adjusted to contain 1.5 g/L sodium bicarbonate and 4.5 g/L glucose and supplemented with fetal bovine serum at a final concentration of 10%, 100 μg/mL of streptomycin, and 100 U/mL penicillin.
as §1, §2, §3, §4, §5, §6, §7, §8
The assays were performed on an ABI 7900 instrument, according to the manufacturer's instructions. A TaqMan Gene Expression Master Mix (provided in the Cells-to-CT™, Applied Biosystems, Cat # 4399002) was used. […]

| Substance | % KD Human (CTGF mRNA [1]) | % KD Mouse (CTGF mRNA [2]) |
| --- | --- | --- |
| 48077-DC: siNA duplex; sense SEQ ID NO: 119 B AGGAAGuAAGGGAcAcGAA TTB; antisense SEQ ID NO: 120 UUCGuGucccuuAcuuccuUU (sense AGGAAGUAAGGGACACGAATT; antisense UUCGUGUCCCUUACUUCCUUU; sense: DNA at AGT, 2'-fluoro at CU, [invAb] at 5' end, 3' end, backbone not given here; antisense: sugars from the 5' end rrrmfmffffffmffffffmm, backbone not given here) | 19 ± 2% | 71 ± 4% |
| 48070-DC: siNA duplex; sense SEQ ID NO: 105 B AcuGGuuucGAGAcAGuuu TTB; antisense SEQ ID NO: 106 AAAcuGucucGAAAccAGuUU (sense ACUGGUUUCGAGACAGUUUTT; antisense AAACUGUCUCGAAACCAGUUU; sense: DNA at AGT, 2'-fluoro at CU, [invAb] at 5' end, 3' end, backbone not given here; antisense: sugars from the 5' end rrrffmffffmmmmffmmfmm, backbone not given here) | 9 ± 21% | 56 ± 2% |
| 48052-DC: siNA duplex; sense SEQ ID NO: 69 B GcGAGGucAuGAAGAAGAA TTB; antisense SEQ ID NO: 70 UUCuucuucAuGAccucGcUU (sense GCGAGGUCAUGAAGAAGAATT; antisense UUCUUCUUCAUGACCUCGCUU; sense: DNA at AGT, 2'-fluoro at CU, [invAb] at 5' end, 3' end, backbone not given here; antisense: sugars from the 5' end rrrffffffmfmmffffmfmm, backbone not given here) | 27 ± 16% | 41 ± 4% |
| 48073-DC: siNA duplex; sense SEQ ID NO: 111 B GGAGAcAuGGcGuAAAGcc TTB; antisense SEQ ID NO: 112 GGCuuuAcGccAuGucuccUU (sense GGAGACAUGGCGUAAAGCCTT; antisense GGCUUUACGCCAUGUCUCCUU; sense: DNA at AGT, 2'-fluoro at CU, [invAb] at 5' end, 3' end, backbone not given here; antisense: sugars from the 5' end rrrfffmfmffmfmfffffmm, backbone not given here) | 7 ± 7% | 25 ± 8% |
| 48051-DC: siNA duplex; sense SEQ ID NO: 67 B GGGuGuGUGAcGAGcccAA TTB; antisense SEQ ID NO: 68 UUGGGcucGucAcAcAcccUU (sense GGGUGUGUGACGAGCCCAATT; antisense UUGGGCUCGUCACACACCCUU; sense: sugars from the 5' end dddfdfddddfdddfffdddd, [invAb] at 5' end, 3' end, backbone not given here; antisense: sugars from the 5' end rrrmmfffmffmfmfmfffmm, backbone not given here) | 15 ± 10% | 14 ± 11% |
| 48076-DC: siNA duplex; sense SEQ ID NO: 117 B AcAGuAGcAcAuuAAuuuA TTB; antisense SEQ ID NO: 118 UAAAuuAAuGuGcuAcuGuUU (sense ACAGUAGCACAUUAAUUUATT; antisense UAAAUUAAUGUGCUACUGUUU; sense: DNA at AGT, 2'-fluoro at CU, [invAb] at 5' end, 3' end, backbone not given here; antisense: sugars from the 5' end rrrmffmmfmfmffmffmfmm, backbone not given here) | −3 ± 1% | 84 ± 1% |
| 48075-DC: siNA duplex; sense SEQ ID NO: 115 B ccucAGAcAcuGGuuucGA TTB; antisense SEQ ID NO: 116 UCGAAAccAGuGucuGAGGUU (sense CCUCAGACACUGGUUUCGATT; antisense UCGAAACCAGUGUCUGAGGUU; sense: DNA at AGT, 2'-fluoro at CU, [invAb] at 5' end, 3' end, backbone not given here; antisense: sugars from the 5' end rrrmmmffmmfmfffmmmmmm, backbone not given here) | 36 ± 9% | 69 ± 2% |
| 48054-DC: siNA duplex; sense SEQ ID NO: 73 B GAcuuGAcAGuGGAAcuAc TTB; antisense SEQ ID NO: 74 GUAGuuccAcuGucAAGucUU (sense GACUUGACAGUGGAACUACTT; antisense GUAGUUCCACUGUCAAGUCUU; sense: DNA at AGT, 2'-fluoro at CU, [invAb] at 5' end, 3' end, backbone not given here; antisense: sugars from the 5' end rrrmffffmffmffmmmffmm, backbone not given here) | 70 ± 5% | 17 ± 3% |
| 48045-DC: siNA duplex; sense SEQ ID NO: 55 B cuGAcGGcGAGGucAuGAA TTB; antisense SEQ ID NO: 56 UUCAuGAccucGccGucAGUU (sense CUGACGGCGAGGUCAUGAATT; antisense UUCAUGACCUCGCCGUCAGUU; sense: DNA at AGT, 2'-fluoro at CU, [invAb] at 5' end, 3' end, backbone not given here; antisense: sugars from the 5' end rrrmfmmffffmffmffmmmm, backbone not given here) | 18 ± 4% | 19 ± 4% |
| 48044-DC: siNA duplex; sense SEQ ID NO: 53 B GuGuGcAccGccAAAGAuG TTB; antisense SEQ ID NO: 54 CAUcuuuGGcGGuGcAcAcUU (sense GUGUGCACCGCCAAAGAUGTT; antisense CAUCUUUGGCGGUGCACACUU; sense: DNA at AGT, 2'-fluoro at CU, [invAb] at 5' end, 3' end, backbone not given here; antisense: sugars from the 5' end rrrffffmmfmmfmfmfmfmm, backbone not given here) | −16 ± 8% | −18 ± 5% |
| 48057-DC: siNA duplex; sense SEQ ID NO: 79 B cuAuuuGAAGuGuAAuuGA TTB; antisense SEQ ID NO: 80 UCAAuuAcAcuucAAAuAGUU (sense CUAUUUGAAGUGUAAUUGATT; antisense UCAAUUACACUUCAAAUAGUU; sense: DNA at AGT, 2'-fluoro at CU, [invAb] at 5' end, 3' end, backbone not given here; antisense: sugars from the 5' end rrrmffmfmffffmmmfmmmm, backbone not given here) | 80 ± 5% | 26 ± 5% |
